Holding throughout (format): physicochemical
Data set [1] in a line: Stability of neat 15(S)-HETE free acid vs sodium salt, four days under ambient air, HPLC (Example 6). Here is the method:
15(S)-HETE free acid and 15(S)-HETE-sodium salt were stored under ambient air for four days and exposed to either a temperature of 40° C. in total darkness, or ambient temperature and 300 foot-candles of light (approximately Standard Fluorescent Room Light). Following the four day exposure, aliquots of the samples were analyzed by HPLC for percent remaining HETE and results are reported in Table 1: […]

A short description of data set [2]: Stability of samples dried from ethanolic stock in amber glass vials at room temperature under ambient atmosphere, HPLC (Example 7). Conditions: for % Remaining: dried film. The source says: Ethanolic stock solutions of 15(S)-HETE free acid and 15(S)-HETE free acid with an approximately equimolar amount of sodium hydroxide (to form the sodium salt in situ) were aliquoted to amber glass vials and dried under a stream of helium. The vials were stored at room temperature under ambient atmosphere. At various times, two vials of each were reconstituted with an aliquot of 50/50 acetonitrile/water and assayed by HPLC for 15(S)-HETE. The results are shown in Table 2 and illustrated in FIG. 1: […]

A short description of data set [3]: Storage stability of 15(S)-HETE-sodium salt as neat solid or as solution in absolute ethanol, HPLC (Example 8). The method, then:
15(S)-HETE-sodium salt as the neat solid under argon or as solutions in absolute ethanol under ambient atmosphere were stored in amber glass vials in a −20° C. freezer or at room temperature. At various times, the samples were analyzed by HPLC for percent of initial 15(S)-HETE remaining.

For `CCCCC[C@H](O)/C=C/C=C\C/C=C\C/C=C\CCCC(=O)O` [15(S)-HETE-free acid, 15(S)-HETE free acid, reference compound], the “% of Initial Amount Remaining” value in data set [1] (40° C., dark) was determined as 0%; in data set [1] (ambient temp., 300 F-C light), 2%. For the same compound, the “% Remaining” value is reported as 100% in data set [2] (0 hours); 4% in data set [2] (5 hours); 0% in data set [2] (24 hours); 0% in data set [2] (55 hours); 0% in data set [2] (72 hours).

On to `CCCCC[C@H](O)/C=C/C=C\C/C=C\C/C=C\CCCC(=O)[O-].[Na+]` [15(S)-HETE-sodium salt, 5,8,11,13-Eicosatetraenoic acid, 15-hydroxy-[15S-(5Z,8Z,11Z,13E)]-sodium salt], for which the “% of Initial” value in data set [3] (1 mg/mL in absolute ethanol, ambient atmosphere, room temp., 2.0 weeks) is recorded as 101%; in data set [3] (1 mg/mL in absolute ethanol, ambient atmosphere, room temp., 4.4 weeks), 101%; in data set [3] (1 mg/mL in absolute ethanol, ambient atmosphere, room temp., 6.0 weeks) it was 101%; in data set [3] (1 mg/mL in absolute ethanol, ambient atmosphere, room temp., 8.4 weeks), 101%; in data set [3] (1 mg/mL in absolute ethanol, ambient atmosphere, −20° C. freezer, 2.0 weeks), 102%; in data set [3] (1 mg/mL in absolute ethanol, ambient atmosphere, −20° C. freezer, 4.4 weeks), 102%. Further, the “% of Initial” value in data set [3] (1 mg/mL in absolute ethanol, ambient atmosphere, −20° C. freezer, 6.0 weeks) was 101%; in data set [3] (1 mg/mL in absolute ethanol, ambient atmosphere, −20° C. freezer, 8.4 weeks) it was 101%; in data set [3] (10 mg/mL in absolute ethanol, ambient atmosphere, room temp., 2.0 weeks) it was 101%; in data set [3] (10 mg/mL in absolute ethanol, ambient atmosphere, room temp., 4.4 weeks), 101%; in data set [3] (10 mg/mL in absolute ethanol, ambient atmosphere, room temp., 6.0 weeks), 101%; in data set [3] (10 mg/mL in absolute ethanol, ambient atmosphere, room temp., 8.4 weeks) it was 100%. The “% of Initial” value came out at 101% in data set [3] (10 mg/mL in absolute ethanol, ambient atmosphere, −20° C. freezer, 2.0 weeks); 102% in data set [3] (10 mg/mL in absolute ethanol, ambient atmosphere, −20° C. freezer, 4.4 weeks); 101% in data set [3] (10 mg/mL in absolute ethanol, ambient atmosphere, −20° C. freezer, 6.0 weeks); 101% in data set [3] (10 mg/mL in absolute ethanol, ambient atmosphere, −20° C. freezer, 8.4 weeks); 72% in data set [3] (solid under argon, room temp., 2.0 weeks); 61% in data set [3] (solid under argon, room temp., 4.4 weeks). Further, the “% of Initial” value in data set [3] (solid under argon, room temp., 6.0 weeks) was 42%; in data set [3] (solid under argon, room temp., 8.4 weeks), 28%; in data set [3] (solid under argon, −20° C. freezer, 2.0 weeks), 99%; in data set [3] (solid under argon, −20° C. freezer, 4.4 weeks), 97%; in data set [3] (solid under argon, −20° C. freezer, 6.0 weeks), 95%; in data set [3] (solid under argon, −20° C. freezer, 8.4 weeks), 92%. In addition, the “% of Initial Amount Remaining” value in data set [1] (40° C., dark) was found to be 86%; in data set [1] (ambient temp., 300 F-C light), 58%. Further, the “% Remaining” value in data set [2] (0 hours) is 100%; in data set [2] (5 hours), 94%; in data set [2] (24 hours) it was 79%; in data set [2] (55 hours), 66%; in data set [2] (72 hours), 65%. Further, in data set [2] (up to 72 hours), the “stability relative to the corresponding free acid (in words)” value was “more stable than the corresponding free acid”.

(Values after US6429227B1, “Hydroxyeicosatetraenoate salts, compositions and methods of use in treating dry eye disorders” (Alcon Universal Ltd., priority 1999, dated 2002).)
